# Columns and labels:
# Format in all cases: in vivo
# Conditions in all cases: 1000 g/Ha, evaluated after 13 days, glasshouse
# [1] = tested on: Echinochloa crus-galli (ECHCG); assay: Pre-emergence herbicidal activity, percentage damage to ECHCG
# Protocol: (§1) Seeds of a variety of test species are sown in standard soil in pots Amaranthus palmeri (AMAPA), Amaranthus retroflexus (AMARE), Setaria faberi (SETFA), Echinochloa crus-galli (ECHCG), Ipomoea hederacea (IPOHE),). After cultivation for one day (pre-emergence) or after 8 days cultivation (post-emergence) under controlled conditions in a glasshouse (at 24/160C, day/night; 14 hours light; 65% humidity), the plants are sprayed with an aqueous spray solution derived from the dissolution of the technical active ingredient in a small amount of acetone and a special solvent and emulsifier mixture referred to as IF50 (11.12% Emulsogen EL360 TM+44.44% N-methylpyrrolidone+44.44% Dowanol DPM glycol ether, which was then diluted to required concentration using 0.2% Genapol XO80 (CAS No. 9043-30-5) in water as the diluent. Compounds are applied at the rates stated. The test plants are then grown in a glasshouse under controlled conditions in a glasshouse (at 24/160C, day/night; 14 hours light; 65% humidity) and watered twice daily. After 13 days for pre and post-emergence, the test is evaluated for the percentage damage caused to the plant. The biological activities are shown in the following table on a five-point scale (5=81-100%; 4=61-80%; 3=41-60%; 2=21-40%; 1=0-20%; NT=not tested).
# [2] = tested on: Echinochloa crus-galli (ECHCG); assay: Post-emergence herbicidal activity, percentage damage to ECHCG
# Protocol: as §1
# [3] = tested on: Amaranthus palmeri (AMAPA); assay: Pre-emergence herbicidal activity, percentage damage to AMAPA
# Protocol: as §1
# [4] = tested on: Ipomoea hederacea (IPOHE); assay: Pre-emergence herbicidal activity, percentage damage to IPOHE
# Protocol: as §1
# [5] = tested on: Amaranthus retroflexus (AMARE); assay: Post-emergence herbicidal activity, percentage damage to AMARE
# Protocol: as §1
# [6] = tested on: Setaria faberi (SETFA); assay: Post-emergence herbicidal activity, percentage damage to SETFA
# Protocol: as §1
# [7] = tested on: Ipomoea hederacea (IPOHE); assay: Post-emergence herbicidal activity, percentage damage to IPOHE
# Protocol: as §1
# [8] = tested on: Amaranthus retroflexus (AMARE); assay: Pre-emergence herbicidal activity, percentage damage to AMARE
# Protocol: as §1
# [9] = tested on: Amaranthus palmeri (AMAPA); assay: Post-emergence herbicidal activity, percentage damage to AMAPA
# Protocol: as §1
# [10] = tested on: Setaria faberi (SETFA); assay: Pre-emergence herbicidal activity, percentage damage to SETFA
# Protocol: as §1
Structure (SMILES),percentage damage caused to the plant (ECHCG) [1],percentage damage caused to the plant (ECHCG) [2],percentage damage caused to the plant (AMAPA) [3],percentage damage caused to the plant (IPOHE) [4],percentage damage caused to the plant (AMARE) [5],percentage damage caused to the plant (SETFA) [6],percentage damage caused to the plant (IPOHE) [7],percentage damage caused to the plant (AMARE) [8],percentage damage caused to the plant (AMAPA) [9],percentage damage caused to the plant (SETFA) [10]
"O=C(O)C[C@@H]1[C@@H]2C[C@@H]2C(=O)N1Cc1cccc(F)c1F (relative stereo) [A.01, 2-[(1R*,2R*,5S*)-3-[(2,3-difluorophenyl)methyl]-4-oxo-3-azabicyclo[3.1.0]hexan-2-yl]acetic acid]",4 (61-80%),4 (61-80%),2 (21-40%),2 (21-40%),4 (61-80%),5 (81-100%),3 (41-60%),4 (61-80%),2 (21-40%),5 (81-100%)
"COC(=O)C[C@H]1[C@@H]2C[C@@H]2C(=O)N1Cc1cccc(F)c1F (relative stereo) [A.10, methyl 2-[(1R*,2S*,5S*)-3-[(2,3-difluorophenyl)methyl]-4-oxo-3-azabicyclo[3.1.0]hexan-2-yl]acetate]",1 (0-20%),2 (21-40%),2 (21-40%),1 (0-20%),2 (21-40%),4 (61-80%),2 (21-40%),2 (21-40%),1 (0-20%),4 (61-80%)
"O=C(O)C[C@@H]1[C@@H]2C[C@@H]2C(=O)N1Cc1ccccc1F (relative stereo) [A.61, 2-[(1R*,2R*,5S*)-3-[(2-fluorophenyl)methyl]-4-oxo-3-azabicyclo[3.1.0]hexan-2-yl]acetic acid]",3 (41-60%),3 (41-60%),4 (61-80%),1 (0-20%),4 (61-80%),5 (81-100%),3 (41-60%),5 (81-100%),3 (41-60%),5 (81-100%)
"O=C(O)C[C@@H]1[C@@H]2C[C@@H]2C(=O)N1Cc1cccc(F)c1 (relative stereo) [A.64, 2-[(1R*,2R*,5S*)-3-[(3-fluorophenyl)methyl]-4-oxo-3-azabicyclo[3.1.0]hexan-2-yl]acetic acid]",4 (61-80%),3 (41-60%),4 (61-80%),4 (61-80%),4 (61-80%),5 (81-100%),3 (41-60%),5 (81-100%),3 (41-60%),5 (81-100%)
"O=C(O)C[C@@H]1[C@@H]2C[C@@H]2C(=O)N1Cc1ccc(F)cc1 (relative stereo) [A.67, 2-[(1R*,2R*,5S*)-3-[(4-fluorophenyl)methyl]-4-oxo-3-azabicyclo[3.1.0]hexan-2-yl]acetic acid]",3 (41-60%),2 (21-40%),4 (61-80%),4 (61-80%),1 (0-20%),4 (61-80%),2 (21-40%),3 (41-60%),3 (41-60%),3 (41-60%)
"O=C(O)C[C@@H]1[C@@H]2C[C@@H]2C(=O)N1Cc1cccc(Cl)c1 (relative stereo) [A.70, 2-[(1R*,2R*,5S*)-3-[(3-chlorophenyl)methyl]-4-oxo-3-azabicyclo[3.1.0]hexan-2-yl]acetic acid]",4 (61-80%),3 (41-60%),1 (0-20%),1 (0-20%),1 (0-20%),4 (61-80%),1 (0-20%),2 (21-40%),3 (41-60%),5 (81-100%)
"O=C(O)C[C@@H]1[C@@H]2C[C@@H]2C(=O)N1Cc1ccc(F)c(F)c1 (relative stereo) [A.73, 2-[(1R*,2R*,5S*)-3-[(3,4-difluorophenyl)methyl]-4-oxo-3-azabicyclo[3.1.0]hexan-2-yl]acetic acid]",3 (41-60%),3 (41-60%),3 (41-60%),4 (61-80%),2 (21-40%),4 (61-80%),1 (0-20%),4 (61-80%),1 (0-20%),5 (81-100%)
"O=C(O)C[C@@H]1[C@@H]2C[C@@H]2C(=O)N1Cc1ccc(Cl)cc1F (relative stereo) [A.76, 2-[(1R*,2R*,5S*)-3-[(2-fluoro-4-chloro)methyl]-4-oxo-3-azabicyclo[3.1.0]hexan-2-yl]acetic acid]",1 (0-20%),1 (0-20%),3 (41-60%),4 (61-80%),1 (0-20%),3 (41-60%),2 (21-40%),1 (0-20%),1 (0-20%),3 (41-60%)
"O=C(O)C[C@@H]1[C@@H]2CCCC[C@@H]2C(=O)N1Cc1cccc(F)c1F (relative stereo) [E.01, 2-[(1R*,3aS*,7aR*)-2-[(2,3-difluorophenyl)methyl]-3-oxo-3a,4,5,6,7,7a-hexahydro-1H-isoindol-1-yl]acetic acid]",2 (21-40%),1 (0-20%),3 (41-60%),–,1 (0-20%),1 (0-20%),1 (0-20%),3 (41-60%),1 (0-20%),1 (0-20%)

# Source: patent US20260293894A1, “FUSED PYRROLIDINE-2-ONE HERBICIDAL COMPOUNDS” (SYNGENTA CROP PROTECTION AG, priority 2023, published 2026)
